Assay results reported in ChEMBL document CHEMBL3603820, “Discovery of a novel 2,3,11,11a-tetrahydro-1H-pyrazino[1,2-b]isoquinoline-1,4(6H)-dione series promoting neurogenesis of human neural progenitor cells” (Bioorg Med Chem Lett, 2015).
Values belong to the compound of their own block, whether it stands above or below them. Active and inactive are the calls of the source. The calls are words filed in the database; no cut-off is given here.

What was measured:
[1] = (§1) Induction of neurogenesis in human H9-derived neuronal progenitor cells at 10 uM assessed as increase in Tuj1 positive cells; format: functional, Neuronal progenitor cell
Neuronal progenitor cell [2] = assay: as §1; format: functional
[3] = Toxicity in human H9-derived neuronal progenitor cells at 0.1 to 10 uM assessed as increase in DAPI positive cells; format: cell-based; conditions: neuronal progenitor cell
[4] = Induction of neurogenesis in human H9-derived neuronal progenitor cells at 0.1 to 10 uM assessed as increase in Tuj1 positive cells; format: functional, Neuronal progenitor cell
Neuronal progenitor cell [5] = assay: Induction of neurogenesis in human H9-derived neuronal progenitor cells at 0.3125 to 10 uM assessed as increase in Tuj1 protein levels incubated for 5 days by Western blotting method; format: functional
[6] = Induction of neurogenesis in mouse neuronal progenitor cells at 0.1 to 10 uM assessed as increase in Tuj1 positive cells; format: functional, Neuronal progenitor cell
[7] = Toxicity in mouse neuronal progenitor cells at 0.1 to 10 uM assessed as increase in DAPI positive cells; format: cell-based; conditions: neuronal progenitor cell
[8] = Ratio of drug level in brain to plasma in mouse; format: ADME, organism-based; conditions: read-out: BPR
[9] = Tmax in C57BL/6 mouse brain at 1.81 mg/kg, po; format: ADME, organism-based
[10] = AUC (0 to t) in C57BL/6 mouse brain at 1.81 mg/kg, po; format: ADME, organism-based
Mus musculus [11] = assay: Induction of neurogenesis in C57BL/6 mouse assessed as increase in BrdU+NeuN+/BrdU+ cells in dentate gyrus at 8.5 mg/kg, ip qd for 7 days and measured on day 14 by immunohistochemistry relative to control; format: functional
[12] = Tmax in C57BL/6 mouse plasma at 13.4 mg/kg, ip; format: ADME, organism-based
[13] = Tmax in C57BL/6 mouse plasma at 1.81 mg/kg, po; format: ADME, organism-based
[14] = Unbound fraction in C57BL/6 mouse brain; format: ADME, tissue-based; conditions: brain tissue
Plasma [15] = assay: Plasma concentration in C57BL/6 mouse at 13.4 mg/kg, ip; format: ADME, organism-based; conditions: in vivo
[16] = Cmax in C57BL/6 mouse plasma at 13.4 mg/kg, ip; format: ADME, organism-based; set-up: dose 13.4 mg/kg, route intraperitoneal
Plasma [17] = assay: Dose normalized AUC in C57BL/6 mouse plasma at 13.4 mg/kg, ip; format: ADME, organism-based; conditions: in vivo
Plasma [18] = assay: Dose normalized AUC in C57BL/6 mouse plasma at 1.81 mg/kg, po; format: ADME, organism-based; conditions: in vivo
[19] = Cmax in C57BL/6 mouse plasma at 1.81 mg/kg, po; format: ADME, organism-based; set-up: dose 1.81 mg/kg, route oral
[20] = Ratio of drug level in brain to plasma in C57BL/6 mouse at 1.81 mg/kg, po; format: ADME, organism-based; conditions: read-out: BPR
[21] = Half life in C57BL/6 mouse plasma at 13.4 mg/kg, ip; format: ADME, organism-based
[22] = AUC (0 to t) in C57BL/6 mouse plasma at 1.81 mg/kg, po; format: ADME, organism-based
Brain [23] = assay: Drug concentration in C57BL/6 mouse brain at 13.4 mg/kg, ip; format: ADME, organism-based; conditions: in vivo, read-out: Drug uptake
Mus musculus [24] = assay: Induction of neurogenesis in C57BL/6 mouse assessed as increase in BrdU+NeuN+/BrdU+ cells in dentate gyrus at 8.5 mg/kg, ip qd for 7 days and measured on day 14 by immunohistochemistry relative to vehicle control; format: functional
[25] = AUC (0 to t) in C57BL/6 mouse plasma at 13.4 mg/kg, ip; format: ADME, organism-based
Brain [26] = assay: Dose normalized AUC in C57BL/6 mouse brain at 1.81 mg/kg, po; format: ADME, organism-based; conditions: in vivo
[27] = Cmax in C57BL/6 mouse brain at 1.81 mg/kg, po; format: ADME, organism-based; set-up: dose 1.81 mg/kg, route oral

SMILES: N#Cc1cccc(COc2ccc3c(c2)CN2C(=O)CN(CC4CCC4)C(=O)[C@H]2C3)c1
- fold change (FC) [1]: 2.12

SMILES: O=C1[C@H]2Cc3ccc(OCc4ccccc4)cc3CN2C(=O)CN1C1CCCC1
- fold change (FC) [1]: 2.07

SMILES: N#Cc1csc(COc2ccc3c(c2)CN2C(=O)CN(C4CCCC4)C(=O)[C@H]2C3)c1
- fold change (FC) [1]: 1.74

SMILES: N#Cc1cccc(COc2ccc3c(c2)CN2C(=O)[C@@H](CO)N(C4CCCC4)C(=O)[C@H]2C3)c1
- fold change (FC) [1]: 2.36

SMILES: N#Cc1cccc(COc2ccc3c(c2)CN2C(=O)CN(C4CCOCC4)C(=O)[C@H]2C3)c1
- fold change (FC) (Neuronal progenitor cell [2]): inactive

SMILES: O=C1[C@H]2Cc3ccc(OCc4cccc(F)c4)cc3CN2C(=O)CN1C1CCCC1
- fold change (FC) [1]: 1.83

SMILES: N#Cc1cccc(COc2ccc3c(c2)CN2C(=O)CN(C4CCCCC4)C(=O)[C@H]2C3)c1
- fold change (FC) [1]: 2.02

- Kp [8]: 0.5
SMILES: N#Cc1cccc(COc2ccc3c(c2Br)CN2C(=O)CN(C4CCCC4)C(=O)[C@H]2C3)c1
- Activity [3]: Non-toxic
- fold change (FC) [1]: 1.9
- fold change (FC) [4]: 1.8
- Activity (Neuronal progenitor cell [5]): Dose-dependent effect
- fold change (FC) [6]: 1.2
- Activity [7]: Non-toxic

SMILES: N#Cc1cccc(COc2ccc3c(c2)CN2C(=O)CN(C4CCN(CC(F)F)CC4)C(=O)[C@H]2C3)c1
- fold change (FC) (Neuronal progenitor cell [2]): inactive

- Tmax [9]: 1 h
- AUC(0-t) [10]: 280 ng·h/mL
- Tmax [12]: 0.25 h
- Tmax [13]: 1 h
- fraction unbound [14]: 0.02
- concentration (Plasma [15]): 8.4 µM
- Cmax [16]: 3500 ng/mL
- AUC/dose (Plasma [17]): 794 ng·h/mL/mg/kg
- AUC/dose (Plasma [18]): 296 ng·h/mL/mg/kg
- Cmax [19]: 126 ng/mL
- Kp [20]: 0.1
- half-life [21]: 4.95 h
- AUC(0-t) [22]: 534 ng·h/mL
- concentration (Brain [23]): 6.1 µM
- AUC(0-t) [25]: 10500 ng·h/mL
- AUC/dose (Brain [26]): 155 ng·h/mL/mg/kg
- Cmax [27]: 92 ng/mL
SMILES: N#Cc1cccc(COc2ccc3c(c2)CN2C(=O)CN(C4CCCC4)C(=O)[C@H]2C3)c1
- fold change (FC) [1]: 2.35
- fold change (FC) (Mus musculus [11]): 1.3
- Activity (Mus musculus [24]): 11.7%

SMILES: N#Cc1cccc(COc2ccc3c(c2)CN2C(=O)[C@H](CO)N(C4CCCC4)C(=O)[C@H]2C3)c1
- fold change (FC) (Neuronal progenitor cell [2]): inactive

SMILES: O=C1[C@H]2Cc3ccc(OCc4cccc(N5CCOCC5)c4)cc3CN2C(=O)CN1C1CCCC1
- fold change (FC) [1]: 2.06

SMILES: N#Cc1cccc(COc2ccc3c(c2)CN2C(=O)CN(C4CCNCC4)C(=O)[C@H]2C3)c1
- fold change (FC) (Neuronal progenitor cell [2]): inactive

SMILES: CCOC(=O)C[C@H]1CC[C@H](N2CC(=O)N3Cc4cc(OCc5cccc(C#N)c5)ccc4C[C@@H]3C2=O)CC1
- fold change (FC) [1]: 1.69

SMILES: COC[C@H]1C(=O)N2Cc3cc(OCc4cccc(C#N)c4)ccc3C[C@@H]2C(=O)N1C1CCCC1
- fold change (FC) [1]: 1.55

SMILES: O=C1[C@H]2Cc3ccc(OCc4ccc(Cl)cc4)cc3CN2C(=O)CN1C1CCCC1
- fold change (FC) [1]: 2.09

SMILES: C[C@H]1C(=O)N2Cc3cc(OCc4cccc(C#N)c4)ccc3C[C@@H]2C(=O)N1C1CCCC1
- fold change (FC) [1]: 1.98

SMILES: N#Cc1cccc(COc2ccc3c(c2)CN2C(=O)CN(C4CCNCC4(F)F)C(=O)[C@H]2C3)c1 (stereo not given in full)
- fold change (FC) [1]: 1.78

SMILES: N#Cc1cccc(COc2ccc3c(c2)CN2C(=O)CN(CC4CC4)C(=O)[C@H]2C3)c1
- fold change (FC) [1]: 1.57

SMILES: N#Cc1cccc(COc2ccc3c(c2)CN2C(=O)CN(C4CCN(CC(F)(F)F)CC4)C(=O)[C@H]2C3)c1
- fold change (FC) (Neuronal progenitor cell [2]): inactive

SMILES: CCN(Cc1cccc(C#N)c1)c1ccc2c(c1)CN1C(=O)CN(C3CCCCC3)C(=O)[C@H]1C2
- fold change (FC) [1]: 1.45

SMILES: CCNC(=O)c1cccc(COc2ccc3c(c2)CN2C(=O)CN(C4CCCC4)C(=O)[C@H]2C3)c1
- fold change (FC) [1]: 1.65

SMILES: N#Cc1cccc(OCc2ccc3c(c2)CN2C(=O)CN(C4CCCC4)C(=O)[C@H]2C3)c1
- fold change (FC) [1]: 2

SMILES: N#Cc1cccc(CNc2ccc3c(c2)CN2C(=O)CN(C4CCCCC4)C(=O)[C@H]2C3)c1
- fold change (FC) [1]: 1.53

SMILES: N#Cc1cccc(COc2ccc3c(c2)CN2C(=O)CN(C4CCN(CCF)CC4)C(=O)[C@H]2C3)c1
- fold change (FC) [1]: 1.91

SMILES: N#Cc1cccc(COc2ccc3c(c2)CN2C(=O)CN(C4CCCC4)C(=O)[C@@H]2C3)c1
- fold change (FC) (Neuronal progenitor cell [2]): inactive

SMILES: COC[C@@H]1C(=O)N2Cc3cc(OCc4cccc(C#N)c4)ccc3C[C@@H]2C(=O)N1C1CCCC1
- fold change (FC) [1]: 2.36

SMILES: O=C1[C@H]2Cc3ccc(OCc4cccc(Cl)c4)cc3CN2C(=O)CN1C1CCCC1
- fold change (FC) [1]: 2.29

SMILES: C[C@@H]1C(=O)N2Cc3cc(OCc4cccc(C#N)c4)ccc3C[C@@H]2C(=O)N1C1CCCC1
- fold change (FC) [1]: 2.41

SMILES: CN(Cc1cccc(C#N)c1)c1ccc2c(c1)CN1C(=O)CN(C3CCCCC3)C(=O)[C@H]1C2
- fold change (FC) [1]: 1.67
